The values that follow come from patent US20160271114A1, “Composition for preventing or treating bacterial infectious disease comprising phospholipase D2 inhibitor” (RESEARCH & BUSINESS FOUNDATION SUNGKYUNKWAN UNIVERSITY, priority 2015, published 2016).

The subject of assay [1] is neutrophils isolated from the bone marrow of WT mice. As to the kind of experiment: CXCL2-induced chemotactic migration of LPS-stimulated neutrophils. The assay is classed as cell-based. As to conditions: LPS 1 μg/ml, FIG. 20B.
Assay [2] relates to CXCR2. As to the kind of experiment: CXCR2 surface expression in LPS-stimulated neutrophils (flow cytometry). Format: cell-based, mice. The settings on record: WT neutrophils, LPS 1 μg/ml; FIG. 17D, FIG. 20A.
Assay [3] deals with GRK2. As to the kind of experiment: LPS-induced GRK2 level in neutrophils (western blotting). The settings on record: WT neutrophils, LPS 1 μg/ml; CAY10594 at 10 μM; FIG. 18B, FIG. 19. The assay is classed as cell-based, mice. The method, then: First, neutrophils were isolated from the bone marrow of WT or PLD2 knockout (KO) mice and stimulated with 1 μg/ml of LPS for 1 hour, and then GRK2 levels were analyzed by western blotting.
Afterward, neutrophils isolated from the bone marrow of the WT mice were cultured with 10 μM of a vehicle (0.5% Tween 80 in PBS) or a PLD2 inhibitor (CAY10594) before being cultured with LPS (1 μg/ml), and then GRK2 levels were analyzed by western blotting.
The control of LPS-induced GRK2 expression by an inhibitor for an intracellular signaling pathway (BAY11-7082) was analyzed by western blotting.

Assay [4] relates to CLP mice. The experiment in a line: Survival rate in CLP-induced sepsis models, WT mice. Format: in vivo. As to conditions: WT mice after CLP surgery; 10 mg/kg subcutaneous at 2, 14, 26 and 38 hours; monitored for 10 days; FIG. 1B. The method, then:
(§1) C57Bl/6 mice were obtained from Orient Bio (Seongnam, Korea). PLD2 knockout (KO) mice were prepared by the method described in a previous study (Ghim, J., J. S. Moon, C. S. Lee, J. Lee, P. Song, A. Lee, J. H. Jang, D. Kim, J. H. Yoon, Y. J. Koh, C. Chelakkot, B. J. Kang, J. M. Kim, K. L. Kim, Y. R. Yang, Y. Kim, S. H. Kim, D. Hwang, P. G. Suh, G. Y. Koh, Y. Y. Kong, and S. H. Ryu, 2014, “Endothelial deletion of phospholipase D2 reduces hypoxic response and pathological angiogenesis,” Arterioscler. Thromb. Vasc. Biol., 34:1697-1703.) All experiments involving animals received the approval of the Institutional Review Committee for Animal Care and Use at the medical school of Sungkyunkwan University. Cecal ligation and puncture (CLP) sepsis models were prepared by the method described in a previous study (Kim, S. D., H. Y. Lee, J. W. Shim, H. J. Kim, Y. H. Yoo, J. S. Park, S. H. Baek, B. A. Zabel, and Y. S. Bae, 2011, “Activation of CXCR2 by extracellular matrix degradation product acetylated Pro-Gly-Pro has therapeutic effects against sepsis,” Am. J. Respir. Crit. Care Med., 184:243-251.) That is, mice were anesthetized with 50 mg/kg of Zoletil and 10 mg/kg of Rompun through intraperitoneal injection, and an abdominal midline incision was made to expose the cecum. […]

The test system of assay [5] is neutrophils isolated from the bone marrow of the WT mice. The experiment in a line: NET formation in ionomycin-stimulated neutrophils (SYTOX Green staining). Format: cell-based. The settings on record: 10 μM, then 5 μM ionomycin, FIG. 10B. The procedure: Neutrophils were isolated from the bone marrow of the WT or PLD2 knockout (KO) mice. More particularly, bone marrow cells were isolated from a femur and a tibia using an HBSS-EDTA solvent. A cell suspension was centrifuged at 400 g for 10 minutes, resuspended cells were loaded onto 52%, 69%, and 78% Percoll gradients, and centrifuged at 1500 g for 30 minutes without breaking. The cells were isolated on a 69%/78% interface layer, and RBCs were removed by hypotonic lysis. 95% or more of the isolated cells were identified to be Ly6G-positive using a flow cytometer. The isolated neutrophils (1×10^5 cells) were seeded on 0.001% poly-lysine-coated 12-mm cover slips of 24-well plates, and stimulated with 5 μM ionomycin. Afterward, the cells were fixed with 4% paraformaldehyde and stained by SYTOX Green nucleic acid staining (5 μM). The NET was visualized using a Zeiss Axiovert fluorescent microscope (Zeiss, Oberkochen, Germany), and images were taken by a Nikon Digital camera.
Additionally, to confirm the variations of NET formation when a PLD2 inhibitor was treated, neutrophils isolated from the bone marrow of the WT mice were cultured with 10 μM of a vehicle (0.5% Tween 80 in PBS) or a PLD2 inhibitor (CAY10594), and then stimulated with 5 μM ionomycin.

Assay [6] has as its system spleen cells isolated from the WT mice. The experiment in a line: LPS-induced inflammatory cytokine/chemokine production in spleen cells (ELISA). Format: cell-based. As to conditions: 10 μM for 30 minutes before LPS (1 μg/ml) for 24 hours; compared with vehicle; FIG. 5B. The method, then: Spleen cells (3×10^6 cells/0.3 ml) isolated from WT or PLD2 knockout (KO) mice were cultured in RPMI 1640 medium containing 5% fetal bovine serum (FBS) in 96-well plates and placed in a 5% CO2 incubator at 37° C. Afterward, the spleen cells were incubated with LPS (1 μg/ml) for 24 hours, and the expression of cytokines and chemokines in the spleen cells was measured by ELISA (e-Bioscience, San Diego, Calif.).
Additionally, to examine the effect of a PLD2 inhibitor on cytokine and chemokine production, before additional culturing with LPS (1 μg/ml) for 24 hours, the spleen cells isolated from the WT mice were cultured with 10 μM of a vehicle (0.5% Tween 80 in PBS) or a PLD2 inhibitor (CAY10594) for 30 minutes. A cell-free supernatant was collected and centrifuged, and the cytokines and the chemokines were detected by ELISA (e-Bioscience, San Diego, Calif.) according to the manufacturer's instructions.

Assay [7] relates to WT neutrophils. The experiment in a line: Ionomycin-induced intracellular calcium mobilization (Fura-2/AM). The assay is classed as cell-based, mice. As to conditions: 10 μM before 5 μM ionomycin, FIG. 15. The procedure:
Subsequently, for individual analysis, the cells were aliquoted (2×10^6 cells/1 ml of Locke's solution containing 154 mM NaCl, 5.6 mM KCl, 1.2 mM MgCl2, 5 mM HEPES [pH 7.3], 10 mM glucose, and 2 mM CaCl2). Afterward, the cells were stimulated with 5 μM ionomycin. Meanwhile, to check the case of the treatment with a PLD2 inhibitor, the cells aliquoted from the WT mouse were cultured with 10 μM of a vehicle (0.5% Tween 80 in PBS) or a PLD2 inhibitor (CAY10594) before being stimulated with ionomycin. A fluorescence change at an emission wavelength of 500 nm was measured using an RF-5301PC spectrofluorophotometer (Shimadzu Instruments Inc., Kyoto, Japan) at excitation wavelengths of 340 nm and 380 nm A [Ca^2+]i increase causes an increase in the fluorescence ratio at an excitation efficiency of 340 to 380 nm, and [Ca^2+]i was calculated using the fluorescence ratio according to Equation 5 of Grynkiewicz et al (Grynkiewicz et al., 1985).

The subject of assay [8] is PLD2 knockout (KO) mice. The experiment in a line: Survival rate of PLD2 knockout (KO) mice after CLP surgery with CXCR2 antagonist treatment. Format: in vivo. The settings on record: treated with the CXCR2 antagonist, FIG. 21. The method, then:
as §1

With `Cc1ccc(S(=O)(=O)/C=C/C#N)cc1` [BAY11-7082], the “CXCL2-induced chemotactic migration of the neutrophils by LPS stimulation” value in assay [1] was “partially but significantly recovered”. Moreover, the “downregulation of LPS-induced CXCR2” value in assay [2] was “significantly diminished”. Moreover, the “upregulation of LPS-induced GRK2 / LPS-induced GRK2 expression” value in assay [3] is listed as “completely inhibited”.

Regarding `O=C(NCCN1CCC2(CC1)C(=O)NCN2c1ccccc1)c1ccc2ccccc2c1` [CAY10594, N-[2-(4-oxo-1-phenyl-1,3,8-triazaspiro[4,5]decan-8-yl)ethyl]-2-naphthalenecarboxamide], the survival rate in assay [4] was determined as 40%. Also, the “NET formation caused by ionomycin stimulation” value in assay [5] is “increased”. Moreover, in assay [6], the CCL5 secretion entry is “considerably decreased”, the CXCL1 secretion entry is on record as “considerably decreased”, the IL-1β secretion entry was “considerably decreased” and the IL-6 secretion result is on record as “considerably decreased”. For the same compound, the TNF-α secretion entry in assay [6] is “considerably decreased”. The “ionomycin-induced intracellular calcium mobilization” value in assay [7] was “improved”. In addition, the “downregulation of LPS-induced CXCR2” value in assay [2] is “recovered”. In addition, the “upregulation of LPS-induced GRK2 / LPS-induced GRK2 expression” value in assay [3] is listed as “blocked”.

With `O=C(Nc1ccc([N+](=O)[O-])cc1O)Nc1ccccc1Br` [SB225002], in assay [8], the “survival of PLD2 knockout (KO) mice after CLP surgery” value is “all of the mice died”.
